Each molecule was assayed against T1, human glycogen phosphorylase a (Homo sapiens, UniProt P06737) (assay: Glycogen phosphorylase a activity test (reverse direction, release of inorganic phosphate)). Conditions: 10 μM test substance; duplicate determinations; 40 min at room temperature.
T1 sequence (P06737 2-847 limits assumed): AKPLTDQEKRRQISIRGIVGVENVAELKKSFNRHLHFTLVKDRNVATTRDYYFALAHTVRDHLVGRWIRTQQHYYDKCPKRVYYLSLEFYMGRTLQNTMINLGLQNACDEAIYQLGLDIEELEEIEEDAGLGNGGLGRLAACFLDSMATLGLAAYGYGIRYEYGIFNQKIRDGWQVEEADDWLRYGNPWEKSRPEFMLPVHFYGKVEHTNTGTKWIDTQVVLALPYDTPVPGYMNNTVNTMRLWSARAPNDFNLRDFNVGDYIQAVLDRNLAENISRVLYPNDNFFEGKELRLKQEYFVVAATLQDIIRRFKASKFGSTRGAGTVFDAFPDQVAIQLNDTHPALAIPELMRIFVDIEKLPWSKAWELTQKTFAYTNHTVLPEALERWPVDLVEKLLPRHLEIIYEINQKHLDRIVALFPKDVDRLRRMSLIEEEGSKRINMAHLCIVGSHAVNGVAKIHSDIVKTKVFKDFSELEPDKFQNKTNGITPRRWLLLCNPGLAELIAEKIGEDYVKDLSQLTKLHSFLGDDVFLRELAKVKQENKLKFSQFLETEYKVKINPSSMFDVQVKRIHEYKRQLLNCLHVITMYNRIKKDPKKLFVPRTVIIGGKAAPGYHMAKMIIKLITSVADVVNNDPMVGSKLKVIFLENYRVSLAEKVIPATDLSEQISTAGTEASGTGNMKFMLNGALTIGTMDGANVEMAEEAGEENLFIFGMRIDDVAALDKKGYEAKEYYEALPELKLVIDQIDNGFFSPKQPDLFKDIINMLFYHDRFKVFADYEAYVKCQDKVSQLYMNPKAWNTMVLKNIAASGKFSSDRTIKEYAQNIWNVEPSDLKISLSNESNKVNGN
Format: biochemical
Method: Glycogen Phophorylase a Activity Test
All reactions were carried out as duplicate determinations in 96-well microtiter plates (half area plates, Costar No. 3696), and the change in absorption as a consequence of the formation of the reaction product was measured at the wavelength specified below in a Multiskan Ascent Elisa Reader (Lab Systems, Finland).
In order to measure the GPa enzyme activity in the reverse direction, the conversion of glucose 1-phosphate to glycogen and inorganic phosphate was measured by the general method of Engers et al. (Engers H D, Shechosky S, Madsen N B, Can J Biochem 1970 July;48(7):746–754) with the following modifications: human glycogen phosphorylase a (for example containing 0.76 mg of protein/ml (Aventis Pharma Deutschland GmbH), dissolved in buffer solution E (25 mM β-glycerophosphate, pH 7.0, 1 mM EDTA and 1 mM dithiothreitol) was diluted to a concentration of 10 μg of protein/ml with buffer T (50 mM Hepes, pH 7.0, 100 mM KCl, 2.5 mM EDTA, 2.5 mM MgCl26H2O) and addition of 5 mg/ml of glycogen. Test substances were prepared as a 10 mM solution in DMSO and diluted to 50 μM with buffer solution T. To 10 μl of this solution were added 10 μl of 37.5 mM glucose dissolved in buffer solution T and 5 mg/ml of glycogen, and also 10 μl of a solution of human glycogen phosphorylase a (10 μg of protein/ml) and 20 μl of 2.5 mM glucose 1-phosphate. The base value of the activity of glycogen phosphorylase a in the absence of test substance was determined by adding 10 μl of buffer solution T (0.1% DMSO). The mixture was incubated at room temperature for 40 minutes and the released inorganic phosphate was determined by means of the general method of Drueckes et al. (al (Drueckes P, Schinzel R, Palm D, Anal Biochem 1995 Sep. 1;230(1):173–177) with the following modifications: 50 μl of a stop solution of 7.3 mM of ammonium molybdate, 10.9 mM of zinc acetate, 3.6% of ascorbic acid, 0.9% of SDS are added to 50 μl of the enzyme mixture. After 60 minutes of incubation at 45° C., the absorption was measured at 820 nm. To determine the background absorption, the stop solution was added immediately after the addition of the glucose 1-phosphate solution in a separate reaction. This test was carried out at a concentration of 10 μM of the test substance, in order to determine the respective inhibition of glycogen phosphorylase a by the test substance in vitro.

% inhibition at 10 μM [%] | Compound
94 | O=C(NC(=O)c1cc(F)c(F)cc1Cl)Nc1ccc(-n2cncn2)cc1F [Example 1c, 1-(2-chloro-4,5-difluorobenzoyl)-3-(2-fluoro-4-[1,2,4]triazol-1-ylphenyl)urea]
94 | COc1cc(-c2nnc(C)[nH]2)ccc1NC(=O)NC(=O)c1ccc(F)cc1Cl [Example 2c, 1-(2-chloro-4-fluorobenzoyl)-3-[2-methoxy-4-(5-methyl-4H-[1,2,4]triazol-3-yl)-phenyl]urea]
100 | COc1cc(-c2nnc(C)[nH]2)ccc1NC(=O)NC(=O)c1cc(F)c(F)cc1Cl [Example 3, 1-(2-chloro-4,5-difluorobenzoyl)-3-[2-methoxy-4-(5-methyl-4H-[1,2,4]triazol-3-yl)-phenyl]urea]
90 | COc1cc(-c2nnc(CC(=O)O)[nH]2)ccc1NC(=O)NC(=O)c1ccc(F)cc1Cl [Example 4d, (5-(4-(3-(2-chloro-4-fluorobenzoyl)ureido)-3-methoxyphenyl)-4H-[1,2,4]triazol-3-yl)acetic acid]
9 | Cc1nnc(-c2ccccc2NC(=O)NC(=O)c2cc(F)c(F)cc2Cl)n1-c1ccccc1C(=O)O [Example 5e, 2-(3-{2-[3-(2-chloro-4,5-difluorobenzoyl)ureido]phenyl}-5-methyl-[1,2,4]triazol-4-yl)benzoic acid]
100 | Cc1nnc(-c2ccc(Cl)c(NC(=O)NC(=O)c3cc(F)c(F)cc3Cl)c2)[nH]1 [Example 6d, 1-(2-chloro-4,5-difluorobenzoyl)-3-[2-chloro-5-(5-methyl-4H-[1,2,4]triazol-3-yl)phenyl]urea]
100 | O=C(NC(=O)c1cc(F)c(F)cc1Cl)Nc1cc(-c2nnc[nH]2)ccc1Cl [Example 6e, 1-(2-chloro-4,5-difluorobenzoyl)-3-[2-chloro-5-(4H-[1,2,4]triazol-3-yl)phenyl]urea]
100 | O=C(NC(=O)c1ccc(F)cc1Cl)Nc1ccc(-c2nnn[nH]2)cc1Cl [Example 7c, 1-(2-chloro-4-fluorobenzoyl)-3-[2-chloro-4-(1H-tetrazol-5-yl)phenyl]urea]
100 | O=C(NC(=O)c1cc(F)c(F)cc1Cl)Nc1ccc(-c2nnn[nH]2)cc1Cl [Example 7d, 1-(2-chloro-4,5-difluorobenzoyl)-3-[2-chloro-4-(1H-tetrazol-5-yl)phenyl)urea]
100 | O=C(NC(=O)c1ccc(F)cc1Cl)Nc1ccc(-c2nnn[nH]2)cc1OC(F)(F)F [Example 7e, 1-(2-chloro-4-fluorobenzoyl)-3-[4-(1H-tetrazol-5-yl)-2-trifluoromethoxyphenyl]-urea]
100 | O=C(NC(=O)c1cc(F)c(F)cc1Cl)Nc1ccc(-c2nnn[nH]2)cc1OC(F)(F)F [Example 7f]
96 | COc1cc(-c2nnc(O)o2)ccc1NC(=O)NC(=O)c1ccc(F)cc1Cl [Example 8c, 1-(2-chloro-4-fluorobenzoyl)-3-[4-(5-hydroxy-[1,3,4]oxadiazol-2-yl)-2-methoxyphenyl]urea]
20 | COc1nn(-c2ccc(NC(=O)NC(=O)c3ccc(F)cc3Cl)c(OC)c2)c(=O)o1 [Example 9e, 1-(2-chloro-4-fluorobenzoyl)-3-(2-methoxy-4-(5-methoxy-2-oxo-3H-[1,3,4]-oxadiazol-3-yl)phenyl)urea]
79 | Cc1nnc(-c2ccc(NC(=O)NC(=O)c3ccc(F)cc3Cl)c(Cl)c2)o1 [Example 9g, 1-(2-chloro-4-fluorobenzoyl)-3-[2-chloro-4-(5-methyl-[1,3,4]oxadiazol-2-yl)phenyl]urea]
100 | Nc1nnc(-c2ccccc2NC(=O)NC(=O)c2cc(F)c(F)cc2Cl)o1 [Example 10c, 1-[2-(5-amino-[1,3,4]oxadiazol-2-yl)phenyl]-3-(2-chloro-4,5-difluorobenzoyl)urea]
100 | O=C(NC(=O)c1cc(F)c(F)cc1Cl)Nc1ccc(-c2noc(=O)[nH]2)cc1OC(F)(F)F [Example 11d, 1-(2-chloro-4,5-difluorobenzoyl)-3-[4-(5-oxo-4,5-dihydro-[1,2,4]oxadiazol-3-yl)-2-trifluoromethoxyphenyl]urea]
85 | Cc1cc(=O)n(-c2ccc(NC(=O)NC(=O)c3ccc(F)cc3Cl)c(C)c2)[nH]1 [Example 12c, 1-(2-chloro-4-fluorobenzoyl)-3-[2-methyl-4-(3-methyl-5-oxo-2,5-dihydropyrazol-1-yl)phenyl]urea]

% inhibition at 10 μM [%] | Compound
48 | O=C(NC(=O)c1cc(F)c(F)cc1Cl)Nc1ccccc1-c1nc2ccccc2[nH]1 [Example 13a, 1-[2-(1H-benzoimidazol-2-yl)phenyl]-3-(2-chloro-4,5-difluorobenzoyl)urea]
97 | Cc1nnc(-c2ccc(Cl)c(NC(=O)NC(=O)c3cc(F)c(F)cc3Cl)c2)[nH]c1=O [Example 14e, 1-(2-chloro-4,5-difluorobenzoyl)-3-[2-chloro-5-(6-methyl-5-oxo-4,5-dihydro-[1,2,4]triazin-3-yl)phenyl]urea]
100 | Cc1nnc(-c2ccc(Cl)c(NC(=O)NC(=O)c3cc(F)c(F)cc3Cl)c2)nc1C [Example 14f, 1-(2-chloro-4,5-difluorobenzoyl)-3-[2-chloro-5-(5,6-dimethyl-[1,2,4]triazin-3-yl)phenyl]urea]
1.0 | NC(=O)C1CCCN(c2ccc(F)cc2NC(=O)NC(=O)c2ccc(F)cc2Cl)C1 (stereo not shown) [Example 19]
0.04 | O=C(NC(=O)c1ccc(F)cc1Cl)Nc1cc(F)ccc1N1CCC(C(=O)O)CC1 [Example 20]
0.3 | CS(=O)(=O)c1ccc(N2CCCC(C(=O)O)C2)c(NC(=O)NC(=O)c2cc(F)c(F)cc2Cl)c1 (stereo not shown) [Example 21]
1.1 | CS(=O)(=O)c1ccc(N2CCCC(C(=O)O)C2)c(NC(=O)NC(=O)c2ccc(F)cc2Cl)c1 (stereo not shown) [Example 22]
0.03 | O=C(NC(=O)c1cc(F)c(F)cc1Cl)Nc1cc(C(F)(F)F)ccc1N1CCCC(C(=O)O)C1 (stereo not shown) [Example 23]
0.09 | O=C(NC(=O)c1ccc(F)cc1Cl)Nc1cc(C(F)(F)F)ccc1N1CCCC(C(=O)O)C1 (stereo not shown) [Example 24]
0.06 | Cc1ccc(NC(=O)NC(=O)c2ccc(F)cc2Cl)c(N2CCCC(C(=O)O)C2)c1 (stereo not shown) [Example 25]
0.04 | Cc1ccc(NC(=O)NC(=O)c2cc(F)c(F)cc2Cl)c(N2CCCC(C(=O)O)C2)c1 (stereo not shown) [Example 26]
0.04 | Cc1ccc(N2CCCC(C(=O)O)C2)c(NC(=O)NC(=O)c2ccc(F)cc2Cl)c1 (stereo not shown) [Example 28]
0.03 | O=C(NC(=O)c1ccc(F)cc1Cl)Nc1cc(Cl)ccc1N1CCCC(C(=O)O)C1 (stereo not shown) [Example 32]
1.0 | COC(=O)c1ccc(N2CCCC(C(=O)O)C2)c(NC(=O)NC(=O)c2cc(F)c(F)cc2Cl)c1 (stereo not shown) [Example 33]
3.2 | COC(=O)c1ccc(N2CCCC(C(=O)O)C2)c(NC(=O)NC(=O)c2ccc(F)cc2Cl)c1 (stereo not shown) [Example 34]
0.3 | CCOC(=O)C1CCCN(c2ccc(F)cc2NC(=O)NC(=O)c2cc(F)c(F)cc2Cl)C1 (stereo not shown) [Example 35]
0.3 | CCOC(=O)C1CCCN(c2ccc(F)cc2NC(=O)NC(=O)c2ccc(F)cc2Cl)C1 (stereo not shown) [Example 36]

From US7138414B2, “Heterocyclically substituted benzoylureas, process for their preparation and their use as pharmaceuticals” (Sanofi-Aventis Deutschland GmbH, priority 2002, dated 2006)
